Assay results: the NIST ThermoML archive (doi:10.1021/je9006597)

Columns and labels:
[1] = 101 kPa, Liquid; for speed of sound: Pulse-echo method
[2] = xn = mol fraction of the nth substance listed; settings: 101 kPa, Liquid; for speed of sound: Pulse-echo method

C1CCCCC1 [cyclohexane]
[1]
Settings	mass density [kg/m3]	speed of sound [m/s]	viscosity [mPa·s]
303.15 K	768.3	1228	0.823
308.15 K	764.4	1208	0.772
313.15 K	760.5	1188	0.685

C1CCCCC1 [cyclohexane] + COC(=O)c1ccccc1
[2], x2 = 0
Settings	mass density [kg/m3]	speed of sound [m/s]	viscosity [mPa·s]
303.15 K	768.3	1228	0.823
308.15 K	764.4	1208	0.772
313.15 K	760.5	1188	0.685

CCCCCCC [heptane]
[1]
Settings	mass density [kg/m3]	speed of sound [m/s]	viscosity [mPa·s]
303.15 K	674.5	1116	0.375
308.15 K	670.3	1092	0.35
313.15 K	667.2	1072	0.325

CCCCCCC [heptane] + COC(=O)c1ccccc1
[2], x2 = 0
Settings	mass density [kg/m3]	speed of sound [m/s]	viscosity [mPa·s]
303.15 K	674.5	1116	0.375
308.15 K	670.3	1092	0.35
313.15 K	667.2	1072	0.325

CCCCCC [hexane]
[1]
Settings	mass density [kg/m3]	speed of sound [m/s]	viscosity [mPa·s]
303.15 K	649.8	1048	0.283
308.15 K	645.9	1028	0.269
313.15 K	642.2	1008	0.252

CCCCCC [hexane] + COC(=O)c1ccccc1
[2], x2 = 0
Settings	mass density [kg/m3]	speed of sound [m/s]	viscosity [mPa·s]
303.15 K	649.8	1048	0.283
308.15 K	645.9	1028	0.269
313.15 K	642.2	1008	0.252

COC(=O)c1ccccc1 [methyl benzoate]
[1]
Settings	mass density [kg/m3]	speed of sound [m/s]	viscosity [mPa·s]
303.15 K	1078.3	1380	1.667
308.15 K	1074.4	1364	1.514
313.15 K	1070.3	1348	1.376

COC(=O)c1ccccc1 [methyl benzoate] + C1CCCCC1
[2]
Settings	mass density, 303.15 K [kg/m3]	mass density, 308.15 K [kg/m3]	mass density, 313.15 K [kg/m3]	speed of sound, 303.15 K [m/s]	speed of sound, 308.15 K [m/s]	speed of sound, 313.15 K [m/s]	viscosity, 303.15 K [mPa·s]	viscosity, 308.15 K [mPa·s]	viscosity, 313.15 K [mPa·s]
x1 = 0.088	796.9	793	789.1	1240	1220	1200	0.802	0.74	0.675
x1 = 0.1777	825.9	822.1	818.2	1252	1232	1212	0.82	0.757	0.704
x1 = 0.2692	855.8	851.9	848.1	1264	1244	1224	0.854	0.792	0.736
x1 = 0.3668	887.5	883.6	879.7	1276	1260	1240	0.905	0.84	0.781
x1 = 0.4667	918.8	915	911.1	1292	1276	1256	0.977	0.904	0.835
x1 = 0.5639	950	946.1	942.2	1308	1292	1276	1.076	0.999	0.932
x1 = 0.6675	981.7	978	974.1	1324	1308	1292	1.181	1.09	1.004
x1 = 0.7727	1013.3	1009.5	1005.5	1340	1324	1312	1.308	1.197	1.097
x1 = 0.8859	1046.1	1042.2	1038.3	1360	1344	1332	1.478	1.363	1.234
x1 = 1	1078.3	1074.4	1070.3	1380	1364	1348	1.667	1.514	1.376

COC(=O)c1ccccc1 [methyl benzoate] + CCCCCC
[2]
Settings	mass density, 303.15 K [kg/m3]	mass density, 308.15 K [kg/m3]	mass density, 313.15 K [kg/m3]	speed of sound, 303.15 K [m/s]	speed of sound, 308.15 K [m/s]	speed of sound, 313.15 K [m/s]	viscosity, 303.15 K [mPa·s]	viscosity, 308.15 K [mPa·s]	viscosity, 313.15 K [mPa·s]
x1 = 0.1027	692.7	689	685.1	1072	1052	1036	0.324	0.301	0.283
x1 = 0.2076	738	734.2	730.3	1100	1080	1064	0.384	0.358	0.335
x1 = 0.3084	781.4	777.6	773.7	1128	1108	1096	0.441	0.409	0.383
x1 = 0.4087	825.2	821.3	817.3	1160	1140	1128	0.527	0.487	0.454
x1 = 0.5114	869.6	865.6	861.7	1196	1180	1164	0.624	0.579	0.542
x1 = 0.6115	913.1	909.2	905.3	1232	1220	1200	0.751	0.688	0.635
x1 = 0.7092	955.5	951.5	947.3	1272	1256	1240	0.915	0.844	0.78
x1 = 0.8069	997.7	993.7	989.7	1312	1292	1280	1.104	1.016	0.935
x1 = 0.9024	1036.9	1033	1029.1	1344	1328	1316	1.37	1.238	1.135
x1 = 1	1078.3	1074.4	1070.3	1380	1364	1348	1.667	1.514	1.376

COC(=O)c1ccccc1 [methyl benzoate] + CCCCCCC
[2]
Settings	mass density, 303.15 K [kg/m3]	mass density, 308.15 K [kg/m3]	mass density, 313.15 K [kg/m3]	speed of sound, 303.15 K [m/s]	speed of sound, 308.15 K [m/s]	speed of sound, 313.15 K [m/s]	viscosity, 303.15 K [mPa·s]	viscosity, 308.15 K [mPa·s]	viscosity, 313.15 K [mPa·s]
x1 = 0.1154	715.5	711.3	708.1	1128	1108	1088	0.413	0.38	0.35
x1 = 0.2273	756.4	752.4	749.1	1148	1128	1108	0.467	0.43	0.401
x1 = 0.335	797.1	793.1	789.8	1168	1148	1128	0.533	0.494	0.458
x1 = 0.439	837.7	833.9	830.5	1192	1172	1152	0.627	0.575	0.529
x1 = 0.5404	878.6	874.8	871.3	1220	1196	1180	0.723	0.666	0.615
x1 = 0.6365	918.3	914.7	911.1	1248	1228	1212	0.84	0.781	0.728
x1 = 0.7324	959	955.3	951.7	1276	1260	1248	0.99	0.904	0.849
x1 = 0.8252	999.4	995.7	992.1	1308	1296	1284	1.172	1.068	0.982
x1 = 0.9133	1038.7	1034.8	1030.9	1348	1336	1324	1.404	1.284	1.15
x1 = 1	1078.3	1074.4	1070.3	1380	1364	1348	1.667	1.514	1.376

COC(=O)c1ccccc1 [methyl benzoate] + CCCCCCCC
[2]
Settings	mass density, 303.15 K [kg/m3]	mass density, 308.15 K [kg/m3]	mass density, 313.15 K [kg/m3]	speed of sound, 303.15 K [m/s]	speed of sound, 308.15 K [m/s]	speed of sound, 313.15 K [m/s]	viscosity, 303.15 K [mPa·s]	viscosity, 308.15 K [mPa·s]	viscosity, 313.15 K [mPa·s]
x1 = 0.129	732.2	728.8	725.3	1160	1140	1124	0.522	0.484	0.447
x1 = 0.2456	770	766.4	762.9	1180	1160	1144	0.576	0.529	0.492
x1 = 0.3586	809.2	805.5	801.8	1200	1180	1164	0.644	0.596	0.556
x1 = 0.4655	848.4	844.5	840.7	1220	1200	1184	0.727	0.668	0.621
x1 = 0.5672	887.5	883.6	879.7	1240	1224	1204	0.832	0.762	0.705
x1 = 0.662	925.8	921.9	918	1260	1248	1228	0.936	0.857	0.788
x1 = 0.7528	964.3	960.3	956.5	1284	1272	1252	1.084	0.99	0.913
x1 = 0.8382	1002.3	998.1	994.3	1308	1300	1280	1.245	1.125	1.033
x1 = 0.9213	1040.6	1036.4	1032.4	1340	1328	1308	1.434	1.303	1.193
x1 = 1	1078.3	1074.4	1070.3	1380	1364	1348	1.667	1.514	1.376

CCCCCCCC [octane]
[1]
Settings	mass density [kg/m3]	speed of sound [m/s]	viscosity [mPa·s]
303.15 K	693.9	1148	0.491
308.15 K	690.4	1132	0.45
313.15 K	687	1112	0.415

CCCCCCCC [octane] + COC(=O)c1ccccc1
[2], x2 = 0
Settings	mass density [kg/m3]	speed of sound [m/s]	viscosity [mPa·s]
303.15 K	693.9	1148	0.491
308.15 K	690.4	1132	0.45
313.15 K	687	1112	0.415
